Experimental data reported in PubChem BioAssay AID179 (DTP/NCI, 2004).
Active and inactive are the calls of the source.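 How the source made its calls: active means compounds giving half or more protection of infected cells from virus-caused growth loss, again on retest; inactive means the rest.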

Test system: CEM cells HIV-1 protection, formazan growth assay
Test: NCI AIDS Antiviral Assay
Conditions: for IC50: measured here: growth of uninfected CEM cells
Outline: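 CEM (human) cells, HIV-1 infected vs uninfected, 5-point dosing, formazan growth read-out. Retest threshold 50% protection.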

Row | Compound | outcome | EC50 [µM] | IC50 [µM]
1 | O=C(c1c(O)cc(O)cc1O)C1Cc2ccccc21 (stereo not given) | inactive |  | 
2 | O=C1CCC(C2(O)c3ccccc3-c3ccccc32)C(=O)N1 (stereo not given) |  | > 123 | > 123
3 | COc1cc(CN(C)N2C(=O)c3cccc4cc([N+](=O)[O-])cc(c34)C2=O)cc(OC)c1OC | inactive |  | 
4 | CC(C)CCN=c1cc2n(-c3ccc(Cl)cc3)c3ccccc3nc-2cc1Nc1ccc(Cl)cc1 | inactive |  | 
5 | O=C1C=C(Nc2cccnc2)c2ccccc2C1=O |  | > 20.9 | 18.2
6 | COc1cc(C2C(C(=O)NCc3ccccc3)=C(C)NC(C)=C2C(=O)NCc2ccccc2)ccc1O |  | > 72.4 | 49
7 | COc1cc2c3c(c1)nc(C)n3C(=O)C(c1ccccc1)S2 (stereo not given) | inactive |  | 
8 | CC(C)OP(=O)(Cc1cc(C(C)(C)C)c(O)c(C(C)(C)C)c1)OC(C)C |  | > 67.6 | > 67.6
9 | CCOC(OC1=C(C#N)CCCC1)C(CC)[Se]c1ccccc1[N+](=O)[O-] (stereo not given) |  | > 23.4 | > 23.4
10 | O=C1C(N=Nc2ccccc2)Sc2nc3ccccc3n21 (stereo not given) |  | > 200 | 85.1
11 | CCOC(=O)Cc1c(C)c2ccc(OC(C)=O)c(OC(C)=O)c2oc1=O |  | > 200 | 36.3
12 | CCOc1ccc(N=Cc2ccc3ccccc3n2)cc1 | inactive |  | 
13 | Cc1c(/C=N/N=C/c2[nH]c(C(=O)OC(C)(C)C)c(C)c2C)[nH]c(C(=O)OC(C)(C)C)c1C | inactive |  | 
14 | C/C(=N\NC(=S)N1CCN(c2ccccn2)CC1)c1ncccn1 |  | > 39.8 | 0.0479
15 | CCOC(=O)c1c(Cl)nc2ccccc2c1N=[N+]=[N-] |  | > 200 | 31.6
16 | CC(=O)C1c2ccccc2C(C(C)=O)(c2ccccc2)C1c1ccccc1 (stereo not given) |  | > 200 | 38
17 | CC1(O)[C@@H]2O[C@@H]2C2(CCCO2)[C@@H]2O[C@@H]21 (stereo not given in full) |  | > 200 | > 200
18 | COc1ccc(-[n+]2nc(S(=O)(=O)O)c(/C=C/c3ccc(N(C)C)cc3)cc2C#N)cc1 |  | > 151 | > 151
19 | COc1cc(/C=C2\NC(=O)N(/C=C3\C(=O)Oc4ccccc4C3=O)C2=O)ccc1O |  | > 200 | > 200
20 | FC(F)(F)c1cc(NC2=NCCN=C(Nc3cc(C(F)(F)F)cc(C(F)(F)F)c3)SS2)cc(C(F)(F)F)c1 |  | > 200 | 3.16
21 | COc1c2c(cc3oc(C)cc(=O)c13)OC(=N)C(C(N)=O)C2CC(=O)c1ccc(N)cc1 (stereo not given) |  | 45.7 | > 100
22 | CCCc1c(C(=O)OCC)[nH]c(C(=O)CCC(=O)c2[nH]c(C(=O)OCC)c(CCC)c2C(=O)OCC)c1C(=O)OCC |  | > 17 | > 17
23 | CC1CC/C(=C\c2ccc(Cl)cc2)C2OC(N)=C(C#N)C(c3ccc(Cl)cc3)=C12 (stereo not given) | inactive |  | 
24 | N/N=C1\CCCc2c1no[n+]2[O-] |  | > 200 | > 200

Row | Compound | outcome | EC50 [µM] | IC50 [µM]
25 | Cc1cc(O)cc(O)c1C(=O)O[C@]1(C)C(=O)C=C2C=C(/C=C/C(=O)O)OC=C2C1=O | inactive |  | 
26 | CC(C)CC(=O)[O-].CC(C)CC(=O)[O-].N.N.N.N.[Co+3].[O-][Cl+3]([O-])([O-])O.[O-][Cl+3]([O-])([O-])[O-] | inactive |  | 
27 | CC/C(Cl)=N\OC(=O)Nc1ccc(F)cc1F |  | > 20 | 3.47
28 | NC1OC(COC(=O)c2ccccc2)C(O)C(OC(=O)c2ccccc2)C1OC(=O)c1ccccc1 (stereo not given) |  | > 200 | 0.933
29 | COc1cc2c(cc1O)CN1CCC23C=C[C@@H](O)CC13 (stereo not given in full) |  | > 912 | 38.9
30 | CC1(C)C2CCC13CS(=O)(=O)N=C3C2 (stereo not given) | inactive |  | 
31 | COc1ccc(-c2csc(=[N+]3CCCCC3)s2)cc1 | inactive |  | 
32 | c1ccc2c(c1)C1CCC2c2ccccc21 |  | > 200 | > 200
33 | CCS(=O)(=O)CCn1c(=O)c2c(ncn2C)n(C)c1=O |  | > 200 | > 200
34 | COC1=CC(=O)NCCN1 |  | 135 | 479
35 | COC(=O)C(/C(=N/NC(N)=O)C(=O)Nc1ccc(C)cc1)c1nc2ccc([N+](=O)[O-])cc2[nH]c1=O (stereo not given) |  | > 141 | > 141
36 | CSC(=S)N(C)c1nc(=[N+](C)C)ss1 | inactive |  | 
37 | Clc1ccc(C2NCCNCc3ccccc32)cc1 (stereo not given) | inactive |  | 
38 | Nc1nc(N)c(-c2ccc(Cl)c(Cl)c2)c(C[P+](c2ccccc2)(c2ccccc2)c2ccccc2)n1 |  | > 200 | 1.05
39 | N#Cc1cc(NC(=O)c2ccccc2)c(=O)n2c1[nH]c1ccccc12 | inactive |  | 
40 | C/C(=N\NS(=O)(=O)c1c(C)cc(C)cc1C)c1ccc[n+]([O-])n1 | inactive |  | 
41 | COc1ccc(CCC2(C(OC)OC)NC(=O)NC2=O)cc1 (stereo not given) |  | > 200 | > 200
42 | CN(CC#N)[C@H]1CCC[C@]1(O)C#C[Si](C)(C)c1ccccc1 |  | > 16.6 | > 16.6
43 | COc1ccc(C(=O)N2CCN(c3ccc4[nH]c(=O)oc4c3)CC2)cc1 |  | > 200 | > 200
44 | N#Cc1c(-c2ccc(Cl)cc2)c(-c2ccc(Cl)cc2)nn(CCOC(=O)CCC(=O)O)c1=O |  | > 513 | 0.468
45 | CCCCCCCCCCCCCCCC(=O)OCC1OC(n2ccc(N)nc2=O)C(O)C1O (stereo not given) |  | > 0.2 | 0.0129
46 | COc1cc(C)c(Br)c2ccc(Br)c(O)c12 |  | > 200 | > 200
47 | COc1ccccc1NC(=O)/C(=C\N1CCNC1=S)C(C)=O |  | > 200 | > 200
48 | COc1cc2c(cn1)[nH]c1ccccc12 | inactive |  | 
